Results published in ChEMBL document CHEMBL5137080, “Discovery of Novel 7-Hydroxy-5-oxo-4,5-dihydrothieno[3,2-b]pyridine-6-carboxamide Derivatives with Potent and Selective Antifungal Activity against Cryptococcus Species” (J Med Chem, 2022).
≈ marks a conversion by molar mass, not a printed value.

How the values were obtained:
[1] = Cytotoxicity against human HUVEC cells assessed as inhibition on cell growth incubated for 24 hrs by CCK-8 assay; format: toxicity, cell-based
[2] = system: Cryptococcus neoformans; test: Antifungal activity against Cryptococcus neoformans H99 assessed as fungal growth inhibition incubated for 72 hrs by broth microdilution method; format: functional
[3] = system: Aspergillus fumigatus; test: Antifungal activity against Aspergillus fumigatus 7544 assessed as fungal growth inhibition incubated for 48 hrs by broth microdilution method; format: functional
[4] = system: Candida albicans; test: Antifungal activity against Candida albicans SC5314 assessed as fungal growth inhibition incubated for 48 hrs by broth microdilution method; format: functional
[5] = Cytotoxicity against human Caco-2 cells assessed as cell viability at 64 ug/ml incubated for 24 hrs by CCK-8 assay; format: toxicity, cell-based; details: at 64 µg/mL, read-out: Activity
[6] = Cytotoxicity against human HUVEC cells assessed as cell viability at 256 ug/ml incubated for 24 hrs by CCK-8 assay; format: toxicity, cell-based; details: at 256 µg/mL, read-out: Activity
[7] = Cytotoxicity against human HUVEC cells assessed as cell viability at 64 ug/ml incubated for 24 hrs by CCK-8 assay; format: toxicity, cell-based; details: at 64 µg/mL, read-out: Activity
[8] = Cytotoxicity against human Caco-2 cells assessed as cell viability at 256 ug/ml incubated for 24 hrs by CCK-8 assay; format: toxicity, cell-based; details: at 256 µg/mL, read-out: Activity
[9] = Hemolytic activity in rabbit RBC at 64 ug/ml incubated for 1 hr by spectrophotometry; format: toxicity, cell-based, Oryctolagus cuniculus, Erythrocyte; details: red blood cells, at 64 µg/mL, read-out: Activity
[10] = Hemolytic activity in rabbit RBC at 16 ug/ml incubated for 1 hr by spectrophotometry; format: toxicity, cell-based, Oryctolagus cuniculus, Erythrocyte; details: red blood cells, at 16 µg/mL, read-out: Activity
[11] = Hemolytic activity in rabbit RBC at 32 ug/ml incubated for 1 hr by spectrophotometry; format: toxicity, cell-based, Oryctolagus cuniculus, Erythrocyte; details: red blood cells, at 32 µg/mL, read-out: Activity

Row | Compound | IC50 at 24 h [1] | MIC [2] | MIC [3] | MIC [4] | other results
1 | CCCCCNC(=O)c1c(O)c2sccc2n(Cc2ccccc2)c1=O | > 64 µg/mL | 0.5 µg/mL (≈ 1.35 µM) | > 64 µg/mL | > 64 µg/mL | 
2 | COCCNC(=O)c1c(O)c2sccc2n(Cc2ccccc2)c1=O | 16 µg/mL (≈ 44.6 µM) | 2 µg/mL (≈ 5.58 µM) | 32 µg/mL (≈ 89.3 µM) | > 64 µg/mL | 
3 | CC(C)CNC(=O)c1c(O)c2sccc2n(Cc2ccccc2)c1=O |  | 16 µg/mL (≈ 44.9 µM) | > 64 µg/mL | > 64 µg/mL | 
4 | O=C(NCC1CC1)c1c(O)c2sccc2n(Cc2ccccc2)c1=O |  | 1 µg/mL (≈ 2.82 µM) | > 64 µg/mL | > 64 µg/mL | 
5 | O=C(NN1CCOCC1)c1c(O)c2sccc2n(Cc2ccccc2)c1=O | > 64 µg/mL | > 64 µg/mL | > 64 µg/mL | > 64 µg/mL | 
6 | CC1CCN(CCNC(=O)c2c(O)c3sccc3n(Cc3ccccc3)c2=O)CC1 |  | 32 µg/mL (≈ 75.2 µM) | 32 µg/mL (≈ 75.2 µM) | 32 µg/mL (≈ 75.2 µM) | 
7 | O=C(NC1CCCCC1)c1c(O)c2sccc2n(Cc2ccccc2)c1=O | > 64 µg/mL | 8 µg/mL (≈ 20.9 µM) | > 64 µg/mL | > 64 µg/mL | 
8 | CC(NC(=O)c1c(O)c2sccc2n(Cc2ccccc2)c1=O)c1ccccc1 (stereo not drawn) |  | 4 µg/mL (≈ 9.89 µM) | > 64 µg/mL | > 64 µg/mL | 
9 | O=C(NCc1cc(F)cc(F)c1)c1c(O)c2sccc2n(Cc2ccccc2)c1=O |  | 2 µg/mL (≈ 4.69 µM) | > 64 µg/mL | > 64 µg/mL | 
10 | O=C(NCCc1ccccc1)c1c(O)c2sccc2n(Cc2ccccc2)c1=O |  | 4 µg/mL (≈ 9.89 µM) | > 64 µg/mL | > 64 µg/mL | 
11 | CCOCCNC(=O)c1c(O)c2sccc2n(Cc2ccccc2)c1=O | 8 µg/mL (≈ 21.5 µM) | 0.5 µg/mL (≈ 1.34 µM) | 16 µg/mL (≈ 43 µM) | > 64 µg/mL | 
12 | Cc1ccc(CNC(=O)c2c(O)c3sccc3n(Cc3ccccc3)c2=O)o1 |  | 2 µg/mL (≈ 5.07 µM) | > 64 µg/mL | > 64 µg/mL | 
13 | O=C(NCCN1CCOCC1)c1c(O)c2sccc2n(Cc2ccccc2)c1=O |  | 8 µg/mL (≈ 19.3 µM) | 64 µg/mL (≈ 155 µM) | 32 µg/mL (≈ 77.4 µM) | 
14 | O=C(NC1CCCC1)c1c(O)c2sccc2n(Cc2ccccc2)c1=O | > 64 µg/mL | 4 µg/mL (≈ 10.9 µM) | > 64 µg/mL | > 64 µg/mL | 
15 | CCCNC(=O)c1c(O)c2sccc2n(Cc2ccccc2)c1=O | > 64 µg/mL | 2 µg/mL (≈ 5.84 µM) | > 64 µg/mL | > 64 µg/mL | 
16 | O=C(NCc1ccc(F)cc1F)c1c(O)c2sccc2n(Cc2ccccc2)c1=O |  | 2 µg/mL (≈ 4.69 µM) | > 64 µg/mL | > 64 µg/mL | 
17 | O=C(NCc1cccc(Cl)c1)c1c(O)c2sccc2n(Cc2ccccc2)c1=O |  | 2 µg/mL (≈ 4.71 µM) | > 64 µg/mL | > 64 µg/mL | 
18 | O=C(NCCO)c1c(O)c2sccc2n(Cc2ccccc2)c1=O | 64 µg/mL (≈ 186 µM) | 8 µg/mL (≈ 23.2 µM) | 32 µg/mL (≈ 92.9 µM) | > 64 µg/mL | 
19 | O=C(NCc1ccccc1F)c1c(O)c2sccc2n(Cc2ccccc2)c1=O |  | 2 µg/mL (≈ 4.9 µM) | > 64 µg/mL | > 64 µg/mL | 
20 | O=C(NCCCCO)c1c(O)c2sccc2n(Cc2ccccc2)c1=O | 16 µg/mL (≈ 43 µM) | 2 µg/mL (≈ 5.37 µM) | 32 µg/mL (≈ 85.9 µM) | > 64 µg/mL | 
21 | CN(C)c1ccc(CNC(=O)c2c(O)c3sccc3n(Cc3ccccc3)c2=O)cc1 |  | 4 µg/mL (≈ 9.23 µM) | > 64 µg/mL | > 64 µg/mL | 
22 | CCC(C)NC(=O)c1c(O)c2sccc2n(Cc2ccccc2)c1=O (stereo not drawn) |  | 4 µg/mL (≈ 11.2 µM) | 64 µg/mL (≈ 180 µM) | > 64 µg/mL | 
23 | O=C(NCc1cccs1)c1c(O)c2sccc2n(Cc2ccccc2)c1=O |  | 2 µg/mL (≈ 5.04 µM) | > 64 µg/mL | > 64 µg/mL | 

Row | Compound | IC50 at 24 h [1] | MIC [2] | MIC [3] | MIC [4] | other results
24 | O=C(Nc1ccccc1)c1c(O)c2sccc2n(Cc2ccccc2)c1=O |  | > 64 µg/mL | > 64 µg/mL | > 64 µg/mL | 
25 | C=CCCNC(=O)c1c(O)c2sccc2n(Cc2ccccc2)c1=O | > 64 µg/mL | 0.25 µg/mL (≈ 0.705 µM) | > 64 µg/mL | > 64 µg/mL | 
26 | COc1ccc(CNC(=O)c2c(O)c3sccc3n(Cc3ccccc3)c2=O)cc1 |  | 2 µg/mL (≈ 4.76 µM) | > 64 µg/mL | > 64 µg/mL | 
27 | O=C(NCc1ccc(F)cc1)c1c(O)c2sccc2n(Cc2ccccc2)c1=O |  | 4 µg/mL (≈ 9.79 µM) | > 64 µg/mL | > 64 µg/mL | 
28 | O=C(NCc1ccccn1)c1c(O)c2sccc2n(Cc2ccccc2)c1=O |  | 2 µg/mL (≈ 5.11 µM) | 16 µg/mL (≈ 40.9 µM) | > 64 µg/mL | 
29 | O=C(NCC1CCCO1)c1c(O)c2sccc2n(Cc2ccccc2)c1=O (stereo not drawn) |  | 4 µg/mL (≈ 10.4 µM) | 16 µg/mL (≈ 41.6 µM) | 32 µg/mL (≈ 83.2 µM) | 
30 | O=C(NCc1ccc(Cl)cc1)c1c(O)c2sccc2n(Cc2ccccc2)c1=O |  | 1 µg/mL (≈ 2.35 µM) | > 64 µg/mL | > 64 µg/mL | 
31 | Cc1ccccc1CNC(=O)c1c(O)c2sccc2n(Cc2ccccc2)c1=O |  | 2 µg/mL (≈ 4.94 µM) | > 64 µg/mL | > 64 µg/mL | 
32 | COc1cccc(CNC(=O)c2c(O)c3sccc3n(Cc3ccccc3)c2=O)c1 |  | 2 µg/mL (≈ 4.76 µM) | > 64 µg/mL | > 64 µg/mL | 
33 | O=C(NCc1ccncc1)c1c(O)c2sccc2n(Cc2ccccc2)c1=O |  | 2 µg/mL (≈ 5.11 µM) | 8 µg/mL (≈ 20.4 µM) | 64 µg/mL (≈ 163 µM) | 
34 | C[C@@H]1[C@H](O)[C@@H](C)/C=C/C=C/C=C/C=C/C=C/C=C/C=C/[C@H](O[C@@H]2O[C@H](C)[C@@H](O)[C@H](N)[C@@H]2O)C[C@@H]2O[C@](O)(C[C@@H](O)C[C@@H](O)[C@H](O)CC[C@@H](O)C[C@@H](O)CC(=O)O[C@H]1C)C[C@H](O)[C@H]2C(=O)O [AMPHOTERICIN B] | 16 µg/mL (≈ 17.3 µM) | 1 µg/mL (≈ 1.08 µM) | 2 µg/mL (≈ 2.16 µM) | 0.125 µg/mL (≈ 0.135 µM) | viability at 24 h, 64 ug/ml [5]: 64.8%; viability at 24 h, 256 ug/ml [6]: 13.7%; viability at 24 h, 64 ug/ml [7]: 68.2%; viability at 24 h, 256 ug/ml [8]: 28.7%; hemolysis at 1 h, 64 ug/ml [9]: 100%; hemolysis at 1 h, 16 ug/ml [10]: 8.06%; hemolysis at 1 h, 32 ug/ml [11]: > 95%
35 | O=C(NCCc1c[nH]c2ccccc12)c1c(O)c2sccc2n(Cc2ccccc2)c1=O |  | 8 µg/mL (≈ 18 µM) | > 64 µg/mL | > 64 µg/mL | 
36 | C#CCNC(=O)c1c(O)c2sccc2n(Cc2ccccc2)c1=O | > 64 µg/mL | 16 µg/mL (≈ 47.3 µM) | > 64 µg/mL | > 64 µg/mL | 
37 | O=C(NCCc1cccs1)c1c(O)c2sccc2n(Cc2ccccc2)c1=O |  | 2 µg/mL (≈ 4.87 µM) | > 64 µg/mL | > 64 µg/mL | 
38 | Cc1ccc(CNC(=O)c2c(O)c3sccc3n(Cc3ccccc3)c2=O)cc1C |  | 2 µg/mL (≈ 4.78 µM) | > 64 µg/mL | > 64 µg/mL | 
39 | CC(NC(=O)c1c(O)c2sccc2n(Cc2ccccc2)c1=O)c1ccc(F)cc1 (stereo not drawn) |  | 2 µg/mL (≈ 4.73 µM) | > 64 µg/mL | > 64 µg/mL | 
40 | CC(C)NC(=O)c1c(O)c2sccc2n(Cc2ccccc2)c1=O | > 64 µg/mL | 2 µg/mL (≈ 5.84 µM) | > 64 µg/mL | > 64 µg/mL | 
41 | CCCCCCNC(=O)c1c(O)c2sccc2n(Cc2ccccc2)c1=O | > 64 µg/mL | 0.5 µg/mL (≈ 1.3 µM) | > 64 µg/mL | > 64 µg/mL | 
42 | O=C(NN1CCCCC1)c1c(O)c2sccc2n(Cc2ccccc2)c1=O | > 64 µg/mL | 16 µg/mL (≈ 41.7 µM) | > 64 µg/mL | > 64 µg/mL | 
43 | CSc1ccc(CNC(=O)c2c(O)c3sccc3n(Cc3ccccc3)c2=O)cc1 |  | 2 µg/mL (≈ 4.58 µM) | > 64 µg/mL | > 64 µg/mL | 
44 | O=C(NCCCO)c1c(O)c2sccc2n(Cc2ccccc2)c1=O | 64 µg/mL (≈ 179 µM) | 4 µg/mL (≈ 11.2 µM) | 32 µg/mL (≈ 89.3 µM) | > 64 µg/mL | 
45 | O=C(NCc1ccccc1Cl)c1c(O)c2sccc2n(Cc2ccccc2)c1=O |  | 2 µg/mL (≈ 4.71 µM) | > 64 µg/mL | > 64 µg/mL | 
